In patent publication US20120017924A1 (priority 2001, published 2012):
Where two headings read alike, the source gives them in different places.

Key:
[1] = smoking a cigarette; cited from earlier work
[2] = Text: Absorption of nicotine from the oral cavity to the systemic circulation is dependent on the pH of the saliva, pH of the blood plasma and the pKa of nicotine, which is about 7.8. Assuming a pH of the plasma of 7.4 and of the saliva of 6.8 only about 10% of the nicotine will be in the free base form. Thus, in order to promote absorption of nicotine in a free base form, which is the form predominantly absorbed through the mucosa, the pH of the saliva must be increased. At a pH of 8.8 about 90% of the nicotine will then be in the free base form.
adult = settings: Merck Index; cited from earlier work

## CN1CCCC1c1cccnc1 (stereo not shown) [nicotine, 3-(1-methyl-2-pyrrolidinyl)-pyridine]
[1]
  time for nicotine to reach the brain after inhalation: ten
[2]; assuming pH of plasma 7.4 and of saliva 6.8
  nicotine in the free base form: about 10%
[2]; at a pH of 8.8
  nicotine in the free base form: about 90%
adult
  amount of nicotine able to kill an adult: Approximately forty
